From the NIST ThermoML archive (doi:10.1016/j.jct.2007.10.007)
Numbers after ± are expanded uncertainties.

Assay: mn = molality of the nth substance listed, in mol/kg
Conditions: 298.15 K, 101 kPa, Liquid

CCCCn1cc[n+](C)c1.[Cl-] [1-butyl-3-methylimidazolium chloride] + O
mass density (m1 = 0.05281): 997.72 ± 0.51 kg/m3 | speed of sound (m1 = 0.05281): 1504.8 ± 1.5 m/s | mass density (m1 = 0.09783): 998.29 ± 0.51 kg/m3 | speed of sound (m1 = 0.09783): 1510.5 ± 1.5 m/s | mass density (m1 = 0.1433): 998.85 ± 0.51 kg/m3 | speed of sound (m1 = 0.1433): 1516.7 ± 1.5 m/s | mass density (m1 = 0.1998): 999.56 ± 0.5 kg/m3 | speed of sound (m1 = 0.1998): 1524.4 ± 1.5 m/s | mass density (m1 = 0.2471): 1000.15 ± 0.5 kg/m3 | speed of sound (m1 = 0.2471): 1530.2 ± 1.5 m/s | mass density (m1 = 0.2899): 1000.69 ± 0.51 kg/m3 | speed of sound (m1 = 0.2899): 1535.5 ± 1.5 m/s | mass density (m1 = 0.3173): 1001.04 ± 0.51 kg/m3 | speed of sound (m1 = 0.3173): 1539.1 ± 1.5 m/s | mass density (m1 = 0.4052): 1002.14 ± 0.52 kg/m3 | speed of sound (m1 = 0.4052): 1549.9 ± 1.5 m/s | mass density (m1 = 0.422): 1002.35 ± 0.52 kg/m3 | speed of sound (m1 = 0.422): 1551.9 ± 1.5 m/s | mass density (m1 = 0.4995): 1003.31 ± 0.52 kg/m3 | speed of sound (m1 = 0.4995): 1562.2 ± 1.5 m/s

Cl.Cn1ccnc1 [1-methylimidazolium chloride] + O
mass density (m1 = 0.05234): 998.29 ± 0.51 kg/m3 | speed of sound (m1 = 0.05234): 1501.6 ± 1.5 m/s | mass density (m1 = 0.09548): 999.3 ± 0.51 kg/m3 | speed of sound (m1 = 0.09548): 1504.7 ± 1.5 m/s | mass density (m1 = 0.147): 1000.49 ± 0.5 kg/m3 | speed of sound (m1 = 0.147): 1508.5 ± 1.5 m/s | mass density (m1 = 0.1998): 1001.69 ± 0.51 kg/m3 | speed of sound (m1 = 0.1998): 1512.5 ± 1.5 m/s | mass density (m1 = 0.2472): 1002.77 ± 0.52 kg/m3 | speed of sound (m1 = 0.2472): 1516 ± 1.5 m/s | mass density (m1 = 0.3011): 1003.97 ± 0.53 kg/m3 | speed of sound (m1 = 0.3011): 1519.9 ± 1.5 m/s | mass density (m1 = 0.3555): 1005.18 ± 0.54 kg/m3 | speed of sound (m1 = 0.3555): 1523.9 ± 1.5 m/s | mass density (m1 = 0.3994): 1006.13 ± 0.54 kg/m3 | speed of sound (m1 = 0.3994): 1526.3 ± 1.5 m/s | mass density (m1 = 0.4551): 1007.35 ± 0.55 kg/m3 | speed of sound (m1 = 0.4551): 1530.5 ± 1.5 m/s | mass density (m1 = 0.5139): 1008.62 ± 0.56 kg/m3 | speed of sound (m1 = 0.5139): 1534.6 ± 1.5 m/s

Cl.c1c[nH]cn1 [imidazolium chloride] + O
mass density (m1 = 0.04296): 998.24 ± 0.51 kg/m3 | speed of sound (m1 = 0.04296): 1500.1 ± 1.5 m/s | mass density (m1 = 0.1027): 999.89 ± 0.5 kg/m3 | speed of sound (m1 = 0.1027): 1503.8 ± 1.5 m/s | mass density (m1 = 0.153): 1001.26 ± 0.51 kg/m3 | speed of sound (m1 = 0.153): 1507 ± 1.5 m/s | mass density (m1 = 0.1976): 1002.47 ± 0.52 kg/m3 | speed of sound (m1 = 0.1976): 1509.7 ± 1.5 m/s | mass density (m1 = 0.2417): 1003.72 ± 0.53 kg/m3 | speed of sound (m1 = 0.2417): 1512.4 ± 1.5 m/s | mass density (m1 = 0.2914): 1004.65 ± 0.53 kg/m3 | speed of sound (m1 = 0.2914): 1515.8 ± 1.5 m/s | mass density (m1 = 0.34): 1006.45 ± 0.55 kg/m3 | speed of sound (m1 = 0.34): 1517.9 ± 1.5 m/s | mass density (m1 = 0.3893): 1007.62 ± 0.55 kg/m3 | speed of sound (m1 = 0.3893): 1521.2 ± 1.5 m/s | mass density (m1 = 0.4495): 1008.96 ± 0.56 kg/m3 | speed of sound (m1 = 0.4495): 1525.2 ± 1.5 m/s | mass density (m1 = 0.5003): 1010.31 ± 0.57 kg/m3 | speed of sound (m1 = 0.5003): 1527.9 ± 1.5 m/s

O [water] + CCCCn1cc[n+](C)c1.[Cl-]
speed of sound (m2 = 0): 1497.6 ± 1.5 m/s

O [water] + Cl.Cn1ccnc1
speed of sound (m2 = 0): 1497.6 ± 1.5 m/s

O [water] + Cl.c1c[nH]cn1
speed of sound (m2 = 0): 1497.6 ± 1.5 m/s
